# Reference: US11786466B2, “Topical formulations for treating dermatological disorders including male pattern baldness” (XYON HEALTH INC., priority 2017, dated 2023)
# Assays:
# [1] = system: dihydrotestosterone (DHT); details: cited from earlier work
# 5-α-reductase = details: cited from earlier work
# [2] = In vitro skin permeation, modified Franz-type diffusion cell; assay type: in vitro ADME; details: human epidermis, receiver compartment, n = 5
# Experimental: An original Franz-type diffusion cell system was modified to accommodate widened vertical columns and removal of the bowl shape. The diffusion area was 0.636 cm^2 with a receiver capacity of approximately 3.0 mL. The receiver volume for each cell was individually calibrated.
# Human epidermis samples were prepared according to standard protocols. […] The samples were used as a membrane between the two chambers in the Franz cells. After about 6-8 hours, fat cells were carefully removed from the full thickness skin. The skin sections were cut into 2.5×2.5 cm squares, sealed in aluminum foil and frozen at −20° C. Prior to preparation, the samples were thawed to room temperature, immersed in 60° C. water, and the epidermis was gently separated from the remaining tissue with forceps and allowed to dry.
# Before being mounted on the Franz cell, each epidermal sheet was visually inspected to avoid any possible defects. Additionally, the electrical resistance of isolated epidermis was measured to ensure the integrity of the barrier membrane. Epidermis samples with a resistance above 18 kΩ/cm^3 were used for experiments.
# The upper and lower parts of the Franz cell were sealed with paraffin film and fastened together by a clamp. […]
# Dutasteride concentration was determined using LC/MS-MS according to the following parameters: […]
# [3] = after sustained oral administration
Structure (SMILES),"Suppression of DHT production [1, 3]",Inhibition of the three 5-α-reductase isoforms (5-α-reductase),Permeated Amount After 24 hours (dutasteride) [2],"Reduction of serum DHT levels [1, 3]","Typical reduction in DHT serum concentration ([1]; oral finasteride therapy, comparison value)",Inhibition of Type I 5-α-reductase (5-α-reductase),Inhibition of Type II and Type III 5-α-reductase (5-α-reductase)
C[C@]12C=CC(=O)N[C@@H]1CC[C@@H]1[C@@H]2CC[C@]2(C)[C@@H](C(=O)Nc3cc(C(F)(F)F)ccc3C(F)(F)F)CC[C@@H]12 [Dutasteride],up to 99%,inhibits all three 5-α-reductase isoforms,never detected,–,–,–,–
CC(C)(C)NC(=O)[C@H]1CC[C@H]2[C@@H]3CC[C@H]4NC(=O)C=C[C@]4(C)[C@H]3CC[C@]12C [Finasteride],–,–,–,65-70%,60-70%,does not inhibit,selectively inhibits
